Test results reported in the supplement of paper PMC13380429.

Key:
Settings in all cases: 72 h
HepG2 [1] = assay: relative viability EC50 (midpoint between 100% and the lowest measured viability); higher = less toxic
Caco-2 [2] = assay: as above
Calu-3 [3] = assay: as above
Vero E6 [4] = assay: as above
U2OS [5] = assay: as above
HepG2 [6] = assay: cell viability relative to DMSO; higher = less toxic
Caco-2 [7] = assay: as above
Calu-3 [8] = assay: as above
Vero E6 [9] = assay: as above
U2OS [10] = assay: as above
HepG2 [11] = assay: drug sensitivity score (DSS) for viability; higher = more toxic; extreme values may be limits of the assay
Caco-2 [12] = assay: as above
Calu-3 [13] = assay: as above
Vero E6 [14] = assay: as above
U2OS [15] = assay: as above

Row | SMILES | relative viability EC50 (HepG2 [1]) [µM] | relative viability EC50 (Caco-2 [2]) [µM] | relative viability EC50 (Calu-3 [3]) [µM] | relative viability EC50 (Vero E6 [4]) [µM] | relative viability EC50 (U2OS [5]) [µM] | cell viability (HepG2 [6]; 1 nM) [%] | cell viability (HepG2 [6]; 10 nM) [%] | cell viability (HepG2 [6]; 100 nM) [%] | cell viability (HepG2 [6]; 1000 nM) [%] | cell viability (HepG2 [6]; 10000 nM) [%] | cell viability (Caco-2 [7]; 1 nM) [%] | cell viability (Caco-2 [7]; 10 nM) [%] | cell viability (Caco-2 [7]; 100 nM) [%] | cell viability (Caco-2 [7]; 1000 nM) [%] | cell viability (Caco-2 [7]; 10000 nM) [%] | cell viability (Calu-3 [8]; 1 nM) [%] | cell viability (Calu-3 [8]; 10 nM) [%] | cell viability (Calu-3 [8]; 100 nM) [%] | cell viability (Calu-3 [8]; 1000 nM) [%] | cell viability (Calu-3 [8]; 10000 nM) [%] | cell viability (Vero E6 [9]; 1 nM) [%] | cell viability (Vero E6 [9]; 10 nM) [%] | cell viability (Vero E6 [9]; 100 nM) [%] | cell viability (Vero E6 [9]; 1000 nM) [%] | cell viability (Vero E6 [9]; 10000 nM) [%] | cell viability (U2OS [10]; 1 nM) [%] | cell viability (U2OS [10]; 10 nM) [%] | cell viability (U2OS [10]; 100 nM) [%] | cell viability (U2OS [10]; 1000 nM) [%] | cell viability (U2OS [10]; 10000 nM) [%] | drug sensitivity score (HepG2 [11]) | drug sensitivity score (Caco-2 [12]) | drug sensitivity score (Calu-3 [13]) | drug sensitivity score (Vero E6 [14]) | drug sensitivity score (U2OS [15])
1 | O=C1CCCN1CC#CCN1CCCC1 [oxotremorine-sesquifumarate] | > 10 | > 10 | > 10 | > 10 | > 10 | 101 | 96 | 104 | 94.9 | 82.6 | 110 | 99.1 | 94.7 | 103 | 98.3 | 96 | 96 | 91.9 | 105 | 101 | 105 | 105 | 104 | 93.8 | 92.8 | 97 | 94.3 | 95.3 | 100 | 102 | 0.9 | 0 | 0 | 0 | 0
2 | Cc1cc(C(N)=O)ccc1-n1c(CCC(=O)O)ccc1-c1ccc(-n2ccnc2)cc1 [N6022] | > 10 | > 10 | > 10 | > 10 | > 10 | 104 | 89.6 | 111 | 107 | 104 | 91.8 | 99.5 | 100 | 104 | 100 | 99.1 | 98.5 | 93.9 | 95.5 | 101 | 99.3 | 96.5 | 94.8 | 94 | 106 | 96.7 | 103 | 97.7 | 101 | 97.2 | 0 | 0 | 0 | 0 | 0
3 | O=c1c2ccccc2nc2n1CCc1c-2[nH]c2ccccc12 [rutaecarpine] | > 10 | > 10 | > 10 | > 10 | > 10 | 104 | 105 | 98.7 | 93.7 | 76.4 | 102 | 100 | 92.9 | 97.1 | 91.6 | 87 | 102 | 98.8 | 111 | 87.9 | 103 | 104 | 98.3 | 100 | 98.8 | 96.5 | 101 | 97 | 106 | 99.8 | 1.7 | 0 | 0 | 0 | 0
4 | Cc1ncc([N+](=O)[O-])n1CC(O)CCl (stereo not given) [ornidazole] | > 10 | > 10 | > 10 | > 10 | > 10 | 101 | 98 | 91.6 | 107 | 99.7 | 103 | 101 | 99.1 | 102 | 98.4 | 99.9 | 95.1 | 93.8 | 96.1 | 108 | 101 | 96.6 | 97.4 | 96 | 104 | 91.3 | 97.1 | 91.8 | 95.8 | 102 | 0 | 0 | 0 | 0 | 0
5 | O=C(NNc1ccccc1)c1ccncc1 [plurisin-1] | > 10 | > 10 | > 10 | > 10 | > 10 | 110 | 109 | 104 | 114 | 77.8 | 106 | 106 | 105 | 91.6 | 101 | 97.9 | 96.6 | 93.2 | 103 | 106 | 102 | 108 | 106 | 96.7 | 95.4 | 103 | 96.3 | 101 | 99.9 | 99.6 | 0.4 | 0 | 0 | 0 | 0
6 | CC(C)(N)Cc1ccccc1 [phentermine] | > 10 | > 10 | > 10 | > 10 | > 10 | 98.5 | 98.2 | 109 | 92.3 | 94.8 | 108 | 108 | 99.8 | 96.3 | 95.8 | 93.3 | 81 | 97.4 | 104 | 98.4 | 102 | 92.1 | 102 | 100 | 96.3 | 97.4 | 96 | 100 | 95.5 | 103 | 0 | 0 | 0 | 0 | 0
7 | Oc1c(Cl)cc(Cl)cc1Sc1cc(Cl)cc(Cl)c1O [bithionol] | > 10 | > 10 | > 10 | > 10 | > 10 | 101 | 89.3 | 93 | 83.1 | 86.3 | 104 | 88.5 | 99 | 86 | 89.2 | 92.6 | 95.7 | 102 | 97.3 | 111 | 97.3 | 107 | 89.9 | 94.8 | 96.4 | 103 | 93.8 | 104 | 98.6 | 104 | 1.7 | 0.4 | 0 | 0 | 0
8 | CC(=O)C(=Cc1cc(O)c(O)c([N+](=O)[O-])c1)C(C)=O [nitecapone] | > 10 | > 10 | > 10 | > 10 | > 10 | 103 | 94 | 96.5 | 98.4 | 93.7 | 94.7 | 92.1 | 99.9 | 95.7 | 96.4 | 97.5 | 93.7 | 105 | 109 | 110 | 109 | 107 | 105 | 98.7 | 105 | 98.8 | 102 | 96.6 | 103 | 95.6 | 0 | 0 | 0 | 0 | 0
9 | CN1C(C(=O)Nc2ccccn2)=C(O)c2sccc2S1(=O)=O [tenoxicam] | > 10 | > 10 | > 10 | > 10 | > 10 | 94.9 | 96 | 96.5 | 88.5 | 101 | 98 | 102 | 96.2 | 98.6 | 92.6 | 99.3 | 102 | 90.7 | 106 | 98.2 | 98.5 | 96.2 | 103 | 98.7 | 99.8 | 93.3 | 94.4 | 93.1 | 97 | 93.1 | 0 | 0 | 0 | 0 | 0
10 | CC(=O)OCC1=C(C(=O)O)N2C(=O)[C@@H](NC(=O)CS/C(=N/C(C)C)NC(C)C)[C@H]2SC1 [cefathiamidine] | > 10 | > 10 | > 10 | > 10 | > 10 | 94.6 | 89.3 | 96.8 | 98.1 | 105 | 97.9 | 96.5 | 113 | 107 | 96.6 | 97.3 | 107 | 107 | 108 | 102 | 99.7 | 101 | 95.1 | 102 | 109 | 94.3 | 94.3 | 97.9 | 98.8 | 102 | 0 | 0 | 0 | 0 | 0
11 | CC(C)(C)c1cc(O)c(C(C)(C)C)cc1O [BHQ] | > 10 | > 10 | > 10 | > 10 | > 10 | 102 | 95.8 | 92.4 | 97.9 | 95.5 | 101 | 96.9 | 102 | 95.7 | 88.9 | 109 | 94 | 93.1 | 97.9 | 108 | 98.3 | 96 | 103 | 96.6 | 91.8 | 101 | 97.2 | 103 | 99.1 | 99.8 | 0 | 0.1 | 0 | 0 | 0
12 | O=c1n(CCCN2CCN(c3cccc(Cl)c3)CC2)nc2ccccn12 [trazodone] | > 10 | > 10 | > 10 | > 10 | > 10 | 95.8 | 99 | 94.1 | 108 | 91 | 99.5 | 98.2 | 97.5 | 89.6 | 96.4 | 105 | 92.4 | 95.1 | 79.7 | 99.3 | 98.8 | 101 | 95.6 | 103 | 101 | 102 | 104 | 98.5 | 97.2 | 98.3 | 0 | 0 | 0 | 0 | 0
13 | C1CCC(NC2CCCCC2)CC1 [dicyclohexylamine] | > 10 | > 10 | > 10 | > 10 | > 10 | 99 | 104 | 97.5 | 111 | 104 | 98.7 | 104 | 94.6 | 106 | 94.1 | 96.6 | 99 | 87.8 | 97.8 | 98 | 99.1 | 96.3 | 97.3 | 100 | 97.5 | 99.2 | 99.5 | 99.4 | 104 | 97.7 | 0 | 0 | 0 | 0 | 0
